Laboratory results: US20110039763A1, “TARGETED ANTIMICROBIAL MOIETIES” (C3 JIAN, INC., priority 2009, published 2011)
Entries after “also recorded” stand apart in the source; their conditions may differ. Square brackets hold non-standard residues; d marks the D form. Ends that are not written are not given here. dOrn = NCCC[C@@H](N)C(=O)O; Orn = NCCC[C@H](N)C(=O)O

Experiments:
microorganisms [1] = experiment: Targeting peptide binding to target microorganisms (Tables 3, 10, 12); conditions: microorganism(s) the targeting peptide binds, preferably 1x PBS
microorganisms [2] = experiment: Morphology, biofilm and growth disrupting peptides (Table 5); type: cell-based; design: key: A: Peptide aggregates; B: Less hyphal formation; Clumps; Diffuse clumps and small polyps; F: Diffuse growth; H: Thin; I: Growth inhibition; Microcolony formation; Rippled; Small polyps; Thick; W: Halo formation on top, microlonies on bottom
Text: In certain embodiments peptides that induce alterations in phenotype or other biological activities can also be used as antimicrobial effector moieties.

[3] = binding in aqueous buffers varied with peptide solubility
[4] = binding in aqueous buffers that varied with peptide solubility

Row | Substance | Target(s) (microorganisms [1]; [3]) | Organism, effect (microorganisms [2]; S. pneumoniae) | also measured
1 | PF-643 (chain 1 VRCRL; chain 2 VRCRL; Peptide with targeting and/or antimicrobial activity) | Mycobacteria spp | S. pneumoniae (R) | Organism, effect (microorganisms [2]; E. faecalis): E. faecalis (R); Organism, effect (microorganisms [2]; MRSA): MRSA (C)
2 | PF-644 (chain 1 TSGLIIGENGLNGL; chain 2 TSGLIIGENGLNGL; Peptide with targeting and/or antimicrobial activity) | Mycobacteria spp | S. pneumoniae (H) | 
3 | PF-645 (chain 1 SNSVQQG; chain 2 SNSVQQG; Peptide with targeting and/or antimicrobial activity) | Mycobacteria spp | S. pneumoniae (I) | Organism, effect (microorganisms [2]; C. albicans): C. albicans (B)
4 | PF-646 (chain 1 APASPGRRPG; chain 2 APASPGRRPG; Peptide with targeting and/or antimicrobial activity) | Mycobacteria spp | S. pneumoniae (H) | Organism, effect (microorganisms [2]; C. albicans): C. albicans (B)
5 | PF-647 (chain 1 GTFLGQKCAAATAS; chain 2 GTFLGQKCAAATAS; Peptide with targeting and/or antimicrobial activity) | Mycobacteria spp | S. pneumoniae (R) | Organism, effect (microorganisms [2]; C. albicans): C. albicans (B)
6 | PF-649 (chain 1 CPRYPFVDVGPAGPWRARWRVGS; chain 2 CPRYPFVDVGPAGPWRARWRVGS; Peptide with targeting and/or antimicrobial activity) | Mycobacteria spp |  | Organism, effect (microorganisms [2]; E. faecalis): E. faecalis (R)
7 | PF-651 (chain 1 PRWPTGAGRHR; chain 2 PRWPTGAGRHR; Peptide with targeting and/or antimicrobial activity) | Mycobacteria spp | S. pneumoniae (H) | 
8 | PF-652 (chain 1 FLAPARPDLQAQRQALAQ; chain 2 FLAPARPDLQAQRQALAQ; Peptide with targeting and/or antimicrobial activity) | Mycobacteria spp | S. pneumoniae (A) | 
9 | PF-653 (chain 1 QSVHPLPAETPVADVI; chain 2 QSVHPLPAETPVADVI; Peptide with targeting and/or antimicrobial activity) | Mycobacteria spp | S. pneumoniae (H) | 
10 | PF-654 (chain 1 LSGRLAGRR; chain 2 LSGRLAGRR; Peptide with targeting and/or antimicrobial activity) | Mycobacteria spp | S. pneumoniae (A) | Organism, effect (microorganisms [2]; C. albicans): C. albicans (B); Organism, effect (microorganisms [2]; MRSA): MRSA (R)
11 | PF-656 (chain 1 RGMFVPFHDVDCVQ; chain 2 RGMFVPFHDVDCVQ; Peptide with targeting and/or antimicrobial activity) | Mycobacteria spp |  | Organism, effect (microorganisms [2]; MRSA): MRSA (R)
12 | PF-657 (chain 1 YVANYTITQFGRDFDDRLAVAIHFA; chain 2 YVANYTITQFGRDFDDRLAVAIHFA; Peptide with targeting and/or antimicrobial activity) | Mycobacteria spp | S. pneumoniae (H) | Organism, effect (microorganisms [2]; C. jeikeium): C. jeikeium (D); Organism, effect (microorganisms [2]; E. faecalis): E. faecalis (D); Organism, effect (microorganisms [2]; MRSA): MRSA (D); Organism, effect (microorganisms [2]; S. epidermidis): S. epidermidis (C)
13 | PF-658 (chain 1 PTTPPPTTPPEIPTGGTVIST; chain 2 PTTPPPTTPPEIPTGGTVIST; Peptide with targeting and/or antimicrobial activity) | Mycobacteria spp | S. pneumoniae (H) | Organism, effect (microorganisms [2]; MRSA): MRSA (R)
14 | PF-659 (chain 1 TVIST; chain 2 TVIST; Peptide with targeting and/or antimicrobial activity) | Mycobacteria spp | S. pneumoniae (C) | Organism, effect (microorganisms [2]; B. subtilis): B. subtilis (H); Organism, effect (microorganisms [2]; MRSA): MRSA (R); Organism, effect (microorganisms [2]; S. epidermidis): S. epidermidis (M)
15 | PF-660 (chain 1 TDPQATAAPRRRTSPR; chain 2 TDPQATAAPRRRTSPR; Peptide with targeting and/or antimicrobial activity) | Mycobacteria spp | S. pneumoniae (H) | 
16 | PF-661 (chain 1 PDEDIRRRAILPPAGPCRPMSPE; chain 2 PDEDIRRRAILPPAGPCRPMSPE; Peptide with targeting and/or antimicrobial activity) | Mycobacteria spp |  | Organism, effect (microorganisms [2]; MRSA): MRSA (R)
17 | PF-662 (chain 1 GKQSRAHGPVASRREFRRKSG; chain 2 GKQSRAHGPVASRREFRRKSG; Peptide with targeting and/or antimicrobial activity) | Mycobacteria spp | S. pneumoniae (A) | 
18 | PF-663 (chain 1 ATLIPRKA; chain 2 ATLIPRKA; Peptide with targeting and/or antimicrobial activity) | Mycobacteria spp | S. pneumoniae (A) | 

Row | Substance | Target(s) (microorganisms [1]; [3]) | Organism, effect (microorganisms [2]; S. pneumoniae) | also measured
19 | PF-665 (chain 1 VLRVATAVGEVPTGL; chain 2 VLRVATAVGEVPTGL; Peptide with targeting and/or antimicrobial activity) | Mycobacteria spp | S. pneumoniae (H) | 
20 | PF-666 (chain 1 PNRRSRPR; chain 2 PNRRSRPR; Peptide with targeting and/or antimicrobial activity) | Mycobacteria spp | S. pneumoniae (A) | 
21 | PF-S004 (VLLNIFRTLLEFFSPSNAPGAEDVPLPDTQA; Peptide with targeting and/or antimicrobial activity) | S. epidermidis and MRSA and C. jeikeium |  | 
22 | PF-S007 (VVAGVVLLTALAVGSKRKEKKQIKEIQRLLAATR; Peptide with targeting and/or antimicrobial activity) | S. epidermidis and MRSA |  | 
23 | PF-S015 (IENLERGARRPP; Peptide with targeting and/or antimicrobial activity) | S. epidermidis and MRSA and C. jeikeium |  | 
24 | PF-S018 (GMPQIPRLRI; Peptide with targeting and/or antimicrobial activity) | S. epidermidis and M. luteus and C. albicans and MRSA and E. faecalis and C. jeikeium and C. jejuni |  | 
25 | PF-S023 (MAEDERRALKRRTNRGRTRTRKRITV; Peptide with targeting and/or antimicrobial activity) | S. epidermidis and MRSA |  | 
26 | PF-S024 (SKRGRKRKDRRKKKANHGKRPNS; Peptide with targeting and/or antimicrobial activity) |  |  | Target(s) (microorganisms [1]; [4]): Corynebacteria
27 | PF-S026 (TELKYNGEEYLLLTQRDILAVIEK; Peptide with targeting and/or antimicrobial activity) | S. epidermidis and MRSA and C. jeikeium |  | 
28 | PF-S029 (TSDTQSQSPWLFDNADIVNIYPVQLMHSSDND; Peptide with targeting and/or antimicrobial activity) | M. luteus; also recorded: P. mirabilis; also recorded: E. coli; also recorded: C. albicans; also recorded: C. jeikeium; also recorded: C. jejuni |  | 
29 | Py Pf 12 ([dS]KG[Orn][dS]SGK[dOrn]ES; not fully specified (bridges)) |  |  | Target(s) (microorganisms [1]; [4]): P. fluorescens
30 | TT-305 (ARNALNMRDVPVDAAIIGIIDGMDEE; Peptide with targeting and/or antimicrobial activity) |  |  | Target(s) (microorganisms [1]; [4]): F. nucleatum
31 | TT-306 (KILNEAEGKLLKVIEKNGEIDIEEI; Peptide with targeting and/or antimicrobial activity) |  |  | Target(s) (microorganisms [1]; [4]): F. nucleatum
32 | TT-307 (NGDKKAKEELDKWDEVIKELNIQF; Peptide with targeting and/or antimicrobial activity) |  |  | Target(s) (microorganisms [1]; [4]): F. nucleatum
33 | TT-308 (GLVIIPNLIALIILFSQVRQQTKDYFSNPKLSSR; Peptide with targeting and/or antimicrobial activity) |  |  | Target(s) (microorganisms [1]; [4]): F. nucleatum
34 | TT-309 (EPLPLTKYDKKDTEMKKVFKEILAGKVGYEKEEE; Peptide with targeting and/or antimicrobial activity) |  |  | Target(s) (microorganisms [1]; [4]): F. nucleatum
35 | TT-310 (TKLKKNNKLLSAKKENTLHTKDK; Peptide with targeting and/or antimicrobial activity) |  |  | Target(s) (microorganisms [1]; [4]): F. nucleatum
36 | TT-311 (AIFDAMHNL; Peptide with targeting and/or antimicrobial activity) |  |  | Target(s) (microorganisms [1]; [4]): S. mutans; also recorded: S. sobrinus
